The source of these data is US6004957A, “Sulfonamide inhibitors of aspartyl protease” (Vertex Pharmaceuticals, Incorporated, priority 1998, dated 1999).

Structures are written as SMILES.

A word on the IC90: it is the point of the concentration-response curve where the effect stands at 90%.

In the experiment the test system is HIVIIIb in CCRM-CEM cells. Briefly: Anti-viral potency in CCRM-CEM cells acutely infected with HIVIIIb (method of Meek et al.), extracellular p24 antigen. It counts as cell-based, HIV-1. The note with it: Human immunodeficiency virus 1, HIV replication, Table VIII, read-out: IC90 Range. From the text:
As discussed above, the novel compounds of the present invention are excellent ligands for aspartyl proteases, particularly HIV-1 and HIV-2 proteases. Accordingly, these compounds are capable of targeting and inhibiting late stage events in HIV replication, i.e., the processing of the viral polyproteins by HIV encoded proteases. […] Because aspartyl protease is essential for the production of mature virions, inhibition of that processing effectively blocks the spread of virus by inhibiting the production of infectious virions, particularly from chronically infected cells. […] Other anti-viral assays have confirmed the potency of these compounds.
Compounds of formula I were tested for their antiviral potency in several virological assays. In the first assay, the compounds were added as a solution in dimethylsulfoxide (DMSO) to a test cell culture of CCRM-CEM cells, a strain of CD4^+ human T-cell lymphoma cells, previously acutely infected with HIVIIIb using standard protocols (see Meek, T. D. et al., "Inhibition of HIV-1 protease in infected T-lymphocytes by synthetic peptide analogues", Nature, 343, p. 90 (1990). Preferred compounds are those which are able to inhibit 90% of viral infectivity at a concentration of 1 μM or less. More preferred compounds are those which are able to inhibit 90% of viral infectivity at a concentration of 100 nM or less.
The effect of the compounds on inhibiting the replication of the virus was measured by determining the HIV extracellular p24 antigen concentration using a commercial enzyme immunoassay (obtained from Coulter Corporation, Hialeah, Fla.).
Take `CC(=O)Nc1ccc(S(=O)(=O)N(CC(C)C)C[C@@H](O)[C@H](Cc2ccccc2)NC(=O)[C@H](CC(N)=O)NC(=O)c2ccc3ccccc3n2)cc1` [Compound 17, (S)-N-1-(1-(S)-Benzyl-3-((4-acetylamino-benzenesulfonyl)-isobutyl-amino)-2-(syn)-hydroxy-propyl)-2-((quinoline-2-carbonyl)-amino)-succinamide]: the IC90 fell in the range of 101 to 1000 nM. The same measure for `CC(=O)Nc1nc(C)c(S(=O)(=O)N(CC(C)C)C[C@@H](O)[C@H](Cc2ccccc2)NC(=O)[C@H](CC(N)=O)NC(=O)c2ccc3ccccc3n2)s1` [Compound 18]: 101 to 1000 nM; for `CC(=O)Nc1cccc(S(=O)(=O)N(CC(C)C)C[C@@H](O)[C@H](Cc2ccccc2)NC(=O)[C@H](CC(N)=O)NC(=O)c2ccc3ccccc3n2)c1` [Compound 19, (S)-N-1-(3-((3-Acetylamino-benzenesulfonyl)-isobutyl-amino)-(1S,2 syn)-1-benzyl-2-hydroxy-propyl)-2-((quinoline-2-carbonyl)-amino)-succinamide]: 101 to 1000 nM; for `CC(C)CN(C[C@@H](O)[C@H](Cc1ccccc1)NC(=O)[C@H](CC(N)=O)NC(=O)c1ccc2ccccc2n1)S(=O)(=O)c1cccc2nonc12` [Compound 20, (S)-N-1-(3-((Benzo(1,2,5)oxadiazole-4-sulfonyl)-isobutyl-amino)-(1S,2 syn)-1-benzyl-2-hydroxy-propyl)-2-((quinoline-2-carbonyl)-amino)-succinamide]: less than 100 nM. With `CC(C)CN(C[C@@H](O)[C@H](Cc1ccccc1)NC(=O)[C@H](CC(N)=O)NC(=O)c1ccc2ccccc2n1)S(=O)(=O)N(C)C` [Compound 21, N-1-((1S-2 syn)-1-Benzyl-2-hydroxy-3-(1-isobutyl-3,3-dimethylsulfonylurea)-propyl)-2-((quinoline-2-carbonyl)-amino)-succinamide] the figure was less than 100 nM; with `CC(=O)Nc1ccc(S(=O)(=O)N(CC(C)C)C[C@@H](O)[C@H](Cc2ccccc2)NC(=O)[C@@H](NC(=O)OCc2ccccn2)C(C)C)cc1` [Compound 22], 101 to 1000 nM; with `C=CCOC(=O)N[C@@H](Cc1ccccc1)[C@H](O)CN(CC(C)C)S(=O)(=O)c1ccc(NC(C)=O)cc1` [Compound 27], 1000 to 10000 nM. Turning to `CC(=O)Nc1ccc(S(=O)(=O)N(CC(C)C)C[C@@H](O)[C@H](Cc2ccccc2)NC(=O)OC(C)C)cc1` [Compound 29], the IC90 lay in the range of 1000 to 10000 nM. With `CC(C)CN(C[C@@H](O)[C@H](Cc1ccccc1)NC(=O)OC(C)(C)C)S(=O)(=O)c1ccc(F)cc1` [Compound 32] the figure was 1000 to 10000 nM. With `CC(C)CN(C[C@@H](O)[C@H](Cc1ccccc1)NC(=O)O[C@H]1CCOC1)S(=O)(=O)c1ccc(F)cc1` [Compound 35, 4-Fluoro-N-((2 syn,3S)-2-hydroxy-4-phenyl-3-((S)-tetrahydrofuran-3-yloxycarbonylamino)-butyl)-N-isobutyl-benzenesulfonamide], the IC90 lay in the range of 101 to 1000 nM. The same measure for `CC(C)CN(C[C@@H](O)[C@H](Cc1ccccc1)NC(=O)O[C@H]1CCOC1)S(=O)(=O)c1ccc(Cl)c(Cl)c1` [Compound 37, 3,4-Dichloro-N-((2 syn,3S)-2-hydroxy-4-phenyl-3-((S)-tetrahydrofuran-3-yloxycarbonylamino)-butyl)-N-isobutyl-benzenesulfonamide]: 101 to 1000 nM; for `CC(C)CN(C[C@@H](O)[C@H](Cc1ccccc1)NC(=O)OCc1ccccc1)S(=O)(=O)c1ccc(F)cc1` [Compound 38]: 1000 to 10000 nM. With `CC(=O)Nc1ccc(S(=O)(=O)N(CC(C)C)C[C@@H](O)[C@H](Cc2ccccc2)NC(=O)OC(C)(C)C)cc1` [Compound 39] the figure was 1000 to 10000 nM. Consider `CC(=O)Nc1ccc(S(=O)(=O)N(CC(C)C)C[C@@H](O)[C@H](Cc2ccccc2)NC(=O)OCc2cccnc2)cc1` [Compound 44, N-(4-(((2 syn,3S)-2-Hydroxy-4-phenyl-3-(pyridin-3-yl-methoxycarbonylamino)-butyl)-isobutyl-sulfamoyl)-phenyl)-acetamide], for which the IC90 lay in the range of 101 to 1000 nM. The same measure for `CC(C)CN(C[C@@H](O)[C@H](Cc1ccccc1)NC(=O)OC(C)(C)C)S(=O)(=O)c1ccccc1` [Compound 45]: 1000 to 10000 nM; for `CC(=O)Nc1ccc(S(=O)(=O)N(CC(C)C)C[C@@H](O)[C@H](Cc2ccccc2)NC(=O)O[C@H]2CCOC2)cc1` [Compound 48, N-(4-(((2 syn,3S)-2-Hydroxy-4-phenyl-3-((S)-tetrahydrofuran-3-yloxycarbonylamino)-butyl)-isobutyl-sulfamoyl)-phenyl)-acetamide]: 101 to 1000 nM; for `CC(C)CN(C[C@@H](O)[C@H](Cc1ccccc1)NC(=O)OC(C)(C)C)S(=O)(=O)c1ccc(F)cc1F` [Compound 49]: 1000 to 10000 nM. On to `CC(C)CN(C[C@@H](O)[C@H](Cc1ccccc1)NC(=O)O[C@H]1CCOC1)S(=O)(=O)c1ccc(-c2ccccn2)s1` [Compound 51], for which the IC90 lay within 1000 to 10000 nM. Turning to `CC(=O)Nc1cc(S(=O)(=O)N(CC(C)C)C[C@@H](O)[C@H](Cc2ccccc2)NC(=O)OC(C)(C)C)ccc1F` [Compound 54], the IC90 lay within 1000 to 10000 nM.

Consider `CC(C)CN(C[C@@H](O)[C@H](Cc1ccccc1)NC(=O)O[C@H]1CCOC1)S(=O)(=O)c1cccc2nonc12` [Compound 60], for which the IC90 was 1000 to 10000 nM. As to `CC(=O)Nc1ccc(S(=O)(=O)N(CC(C)C)C[C@@H](O)[C@H](Cc2ccccc2)NC(=O)OCc2ccccc2)cc1` [Compound 61], the IC90 was 1000 to 10000 nM. The same measure for `CC(C)CN(C[C@@H](O)[C@H](Cc1ccccc1)NC(=O)OCc1ccccc1)S(=O)(=O)c1ccc(N)c([N+](=O)[O-])c1` [Compound 63]: 1000 to 10000 nM; for `CC(C)CN(C[C@@H](O)[C@H](Cc1ccccc1)NC(=O)OC(C)(C)C)S(=O)(=O)c1ccc2nonc2c1` [Compound 64]: 1000 to 10000 nM; for `CC(C)CN(C[C@@H](O)[C@H](Cc1ccccc1)NC(=O)OCc1ccccc1)S(=O)(=O)c1ccc2nonc2c1` [Compound 65]: 1000 to 10000 nM. The same measure for `CC(C)CN(C[C@@H](O)[C@H](Cc1ccccc1)NC(=O)O[C@H]1CCOC1)S(=O)(=O)c1ccc2nonc2c1` [Compound 66]: 101 to 1000 nM; for `C=CCOC(=O)N[C@@H](Cc1ccccc1)[C@H](O)CN(CC(C)C)S(=O)(=O)c1ccc(Cl)c(Cl)c1` [Compound 81]: 1000 to 10000 nM; for `CC(C)CN(C[C@@H](O)[C@H](Cc1ccccc1)NC(=O)OCc1cccnc1)S(=O)(=O)c1ccc2nonc2c1` [Compound 82]: 1000 to 10000 nM. As for `CC(C)(C)OC(=O)N[C@@H](Cc1ccccc1)[C@H](O)CN(CC1CCCC1)S(=O)(=O)c1ccc(Cl)c(Cl)c1` [Compound 84], the IC90 lay within 1000 to 10000 nM. The same measure for `CC(C)CN(C[C@@H](O)[C@H](Cc1ccccc1)NC(=O)OCC1CCOC1)S(=O)(=O)c1ccc(Cl)c(Cl)c1` (stereo partly drawn) [Compound 85]: 1000 to 10000 nM.

In the case of `CC(=O)Nc1ccc(S(=O)(=O)N(CC(C)C)C[C@@H](O)[C@H](Cc2ccccc2)NC(=O)OC2CCOC2)cc1` (stereo partly drawn) [Compound 86, N-(4-(((2 syn,3S)-2-Hydroxy-4-phenyl-3-((R)-tetrahydrofuran-3-yloxycarbonylamino)-butyl)-isobutyl-sulfamoyl-phenyl)-acetamide and N-(4-(((2 syn,3S)-2-Hydroxy-4-phenyl-3-((S)-tetrahydrofuran-3-yloxycarbonylamino)-butyl)-isobutyl-sulfamoyl)-phenyl)-acetamide], the IC90 was in the range of 101 to 1000 nM. For the molecule `CC(=O)Nc1cc(S(=O)(=O)N(CC(C)C)C[C@@H](O)[C@H](Cc2ccccc2)NC(=O)O[C@H]2CCOC2)ccc1F` [Compound 88, N-(2-Fluoro-5-(((2 syn,3S)-2-hydroxy-4-phenyl-3-((S)-tetrahydrofuran-3-yloxycarbonylamino)-butyl)-isobutyl-sulfamoyl)-phenyl)-acetamide], the 90% effect concentration (IC90) was in the range of 101 to 1000 nM. The same measure for `CCCOC(=O)N[C@@H](Cc1ccccc1)[C@H](O)CN(CC(C)C)S(=O)(=O)c1ccc(Cl)c(Cl)c1` [Compound 89]: 1000 to 10000 nM; for `CC(=O)Nc1cccc(S(=O)(=O)N(CC(C)C)C[C@@H](O)[C@H](Cc2ccccc2)NC(=O)O[C@H]2CCOC2)c1` [Compound 91, N-(3-(((2 syn,3S)-2-Hydroxy-4-phenyl-3-((S)-tetrahydrofuran-3-yloxycarbonylamino)-butyl)-isobutyl-sulfamoyl)-phenyl)-acetamide]: 101 to 1000 nM; for `CC(C)CN(C[C@@H](O)[C@H](Cc1ccccc1)NC(=O)O[C@@H]1CCOC1)S(=O)(=O)c1ccc(F)cc1` [Compound 93, 4-Fluoro-N-((2 syn,3S)-2-hydroxy-4-phenyl-3-((R)-tetrahydrofuran-3-yloxycarbonylamino)-butyl)-N-isobutyl-benzenesulfonamide]: 101 to 1000 nM. As for `CC(=O)Nc1ccc(S(=O)(=O)N(CC(C)C)C[C@@H](O)[C@H](Cc2ccccc2)NC(=O)O[C@@H]2CCOC2)cc1` [Compound 94, N-(4-(((syn)-2-Hydroxy-(S)-4-phenyl-3-((tetrahydro-furan-(R)-3-yl)-oxycarbonylamino)-butyl)-isobutyl-sulfamoyl)-phenyl)-acetamide], the concentration for an effect of 90% (IC90) is 101 to 1000 nM. With `CC(C)CN(C[C@@H](O)[C@H](Cc1ccccc1)NC(=O)O[C@H]1CCOC1)S(=O)(=O)c1cc(Cl)c(Cl)s1` [Compound 95] the figure was 1000 to 10000 nM.
